The test relates to anaphylactic asthma in guinea-pigs. Description: Antagonism to anaphylactic asthma in guinea-pigs (inhibitory effect from number of surviving animals). The class given is in vivo, guinea-pig (male Hartley strain). The note with it: oral, 30 minutes before egg albumin challenge, survival more than 2 hours after antigen spray, *Dose group: 5 guineapigs (compound D). The protocol:
Equal volumes of a saline solution of egg albumin (200 mg/ml) and of Freund's Complete Ajuvant were mixed and emulsified. Each male New Zealand white strain rabbits, each weighing 2 to 2.5 kg., received an intramuscular injection of 0.5 ml of the emulsion in the left and right thigh regions. One week later, they received an intradermal injection of 0.25 ml of a saline solution of egg albumin (concentration: 20 mg/ml) in the different four sites of the dorsal skin surface three times every other week. Blood samples were collected from the carotid artery one week after the last injection.
The level of anaphylactic anti-egg albumin antibodies in pools of sera were determined by passive cutaneous anaphylaxis (PCA) reactions using shaven Hartley strain test guinea-pigs.
Antiserum was serially diluted (two fold) in saline and 0.1 ml of each antiserum dilution were injected intradermally into the dorsal skin surface of the test guinea-pigs. 24 hours after intradermal sensitization,Egg albumin-specific PCA reactions were elicited by intravenous injection of 10 mg of egg albumin in 1 ml of 1% Evans blue dye dissolved in saline. Reactions were read and recorded as the highest dilution of serum evoking threshold PCA reactivity (5 mm diameter).
Male Hartley strain guinea-pigs, weighing 305 to 400 g, were used. Animals were sensitized by an intravenous injection of rabbit antiserum against egg albumin (4000 PCA titer) with 0.5 ml/animal. After 24 hours, animals were placed individually in a plastic chamber of 5.3 liter volume. An aerosol of 5% egg albumin solution was sprayed in the chamber at a rate of 0.16 ml/min with a commercial nebulizer. The test compounds were given to the animals orally 30 minutes before the challenge with the egg albumin solution. Each dose group consisted of 3 or 5 animals. The inhibitory effect of the test compounds was determined from the number of surviving animals more than 2 hours after spray of the antigen.

`CS(=O)(=O)Nc1nc(CN2CCN(C(c3ccccc3)c3ccccc3)CC2)cs1` [Compound A, 4-(4-Benzhydrylpiperazin-1-ylmethyl)-2-methanesulfonamidothiazole]: the “Inhibitory Effect” value (Dose 1 mg/kg) is 100% and the “Inhibitory Effect” value (Dose 10 mg/kg) is 100%.
As for `CCS(=O)(=O)Nc1nc(CN2CCN(C(c3ccccc3)c3ccccc3)CC2)cs1` [Compound B, 4-(4-Benzhydrylpiperazin-1-ylmethyl)-2-ethanesulfonamidothiazole], the “Inhibitory Effect” value is, setting by setting: (Dose 1 mg/kg) 67%; (Dose 10 mg/kg) 100%.
On the same counts, the results for `CCCS(=O)(=O)Nc1nc(CN2CCN(C(c3ccccc3)c3ccccc3)CC2)cs1` [Compound C, 4-(4-Benzhydrylpiperazin-1-ylmethyl)-2-propanesulfonamidothiazole] are 100% and 100%.
On the same counts, the results for `CC(=O)Nc1nc(CCCN2CCN(C(c3ccccc3)c3ccccc3)CC2)cs1` [Compound D, 4-[3-(4-Benzhydrylpiperazin-1-yl)-propyl]-2-acetamidothiazole] are 40% and 100%.

Source of the values: US4411900A, “Benzhydrylpiperozinyl thiazole derivatives and pharmaceutical composition comprising the same” (Fujisawa Pharmaceutical Co., Ltd., priority 1980, dated 1983).
